Data published in patent publication US20220251105A1, “METHODS OF TREATING A MK2-MEDIATED DISORDER” (Celgene CAR LLC, priority 2019, published 2022).
Like-named read-outs stand apart in the source and are kept apart here.

Legend:
[1] = single intravenous dose pharmacokinetics in Sprague Dawley rats; format: in vivo; conditions: rat, plasma; for Vd: read-out: Vdss
Protocol: (§1) In vitro and in vivo studies were conducted to characterize the absorption, PK, distribution, and metabolism of Compound 1. […] Additionally, plasma samples from single dose PK studies in mice and monkeys were evaluated for circulating metabolites.

[2] = single oral dose pharmacokinetics in cynomolgus monkeys; format: in vivo, cynomolgus monkey
Protocol: as §1

[3] = Phase 1 first in human study, pharmacokinetics; format: in vivo
[4] = system: CYP3A4/5; assay: in vitro assessment of CYP inhibition; format: in vitro ADME, human; conditions: in vitro assessments
Protocol: as §1

[5] = system: Ankylosing spondylitis in HLA B27 Tg rat; assay: HLA-B27/Huβ2m transgenic rat model of ankylosing spondylitis
Excerpt: Etanercept and tofactinib (Balagué et al. Profiling of dihydroorotate dehydrogenase, p38 and JAK inhibitors in the rat adjuvant-induced arthritis model: a translational study. Br J Pharmacol. 2012 June; 166(4):1320-32) were included in this rat study as comparator molecules.

[6] = cynomolgus monkey, plasma, monkey, female, single oral 50 mg/kg
[7] = cynomolgus monkey, plasma, monkey, female, single oral 150 mg/kg
[8] = cynomolgus monkey, plasma, monkey, female, single oral 375 mg/kg
[9] = cynomolgus monkey, plasma, monkey, male, single oral 50 mg/kg
[10] = cynomolgus monkey, plasma, monkey, male, single oral 150 mg/kg
[11] = cynomolgus monkey, plasma, monkey, male, single oral 375 mg/kg

`CCOCc1cnc(Cl)nc1Oc1ccc2c(ccc3sc4c(c32)NC[C@@H](C)NC4=O)n1` [Compound 1] gave a half-life ([1]; both sexes, iv, 5 mg/kg, rats, read-out: terminal half-life) of no more than 1 h, an AUC ([1]; female, single IV 5 mg/kg) of 3950 ng·h/mL and an AUC(0-inf) ([1]; female, single IV 5 mg/kg) of 3960 ng·h/mL. For the same molecule, the clearance ([1]; female, single IV 5 mg/kg) was 21.5 mL/min/kg, the Vd ([1]; female, single IV 5 mg/kg) was 0.561 L/kg and the half-life ([1]; female, single IV 5 mg/kg, read-out: t1/2,z (converted)) was 1.1 h. For the same molecule, the AUC ([1]; male, single IV 5 mg/kg) was 2020 ng·h/mL, the AUC(0-inf) ([1]; male, single IV 5 mg/kg) was 2020 ng·h/mL and the clearance ([1]; male, single IV 5 mg/kg) was 42.2 mL/min/kg. The Vd ([1]; male, single IV 5 mg/kg) was 0.648 L/kg, the half-life ([1]; male, single IV 5 mg/kg, read-out: t1/2,z (converted)) was 0.23 h and the bioavailability ([2]; both sexes, cynomolgus monkey, plasma, po, monkeys, doses in the range 15 to 375 mg/kg) was 8 to 28%. It also gave a Tmax ([2]; both sexes, cynomolgus monkey, plasma, monkeys, oral dosing, read-out: time to maximum plasma concentration (tmax)) of 1 to 6 h, an AUC [2, 6] of 3810 ng·h/mL and an AUC(0-inf) [2, 6] of 3840 ng·h/mL. It also gave a Cmax [2, 6] of 1040 ng/mL, a Tmax ([2]; cynomolgus monkey, plasma, monkey, female, single oral 50 mg/kg, median, read-out: tmax) of 2 h and an AUC [2, 7] of 4750 ng·h/mL. The AUC(0-inf) [2, 7] was 4820 ng·h/mL, the Cmax [2, 7] was 1200 ng/mL and the Tmax ([2]; cynomolgus monkey, plasma, monkey, female, single oral 150 mg/kg, median, read-out: tmax) was 2 h. It also gave an AUC [2, 8] of 22600 ng·h/mL, an AUC(0-inf) [2, 8] of 22700 ng·h/mL and a Cmax [2, 8] of 2530 ng/mL. It also gave a Tmax ([2]; cynomolgus monkey, plasma, monkey, female, single oral 375 mg/kg, median, read-out: tmax) of 6 h, an AUC [2, 9] of 3680 ng·h/mL and an AUC(0-inf) [2, 9] of 3710 ng·h/mL. It also gave a Cmax [2, 9] of 865 ng/mL, a Tmax ([2]; cynomolgus monkey, plasma, monkey, male, single oral 50 mg/kg, median, read-out: tmax) of 2 h and an AUC [2, 10] of 8480 ng·h/mL. For the same molecule, the AUC(0-inf) [2, 10] was 8590 ng·h/mL, the Cmax [2, 10] was 1990 ng/mL and the Tmax ([2]; cynomolgus monkey, plasma, monkey, male, single oral 150 mg/kg, median, read-out: tmax) was 1 h. The AUC [2, 11] was 13900 ng·h/mL, the AUC(0-inf) [2, 11] was 14000 ng·h/mL and the Cmax [2, 11] was 1890 ng/mL. For the same molecule, the F ([2]; monkey, female, single oral 50 mg/kg) was 19%, the F ([2]; monkey, female, single oral 150 mg/kg) was 8% and the F ([2]; monkey, female, single oral 375 mg/kg) was 15%. The F ([2]; monkey, male, single oral 50 mg/kg) was 18%, the F ([2]; monkey, male, single oral 150 mg/kg) was 14% and the F ([2]; monkey, male, single oral 375 mg/kg) was 9%. The “dose proportionality of Cmax and AUC” value ([3]; Day 14, multiple daily doses 10 mg to 150 mg) was “approximately dose-proportional manner”, the “effect of food on PK” value ([3]; current capsule formulation, fed vs fasted) was “limited effect” and the accumulation ([3]; daily dosing for 14 days) was “limited to no observed accumulation”. It also gave an AUC ([3]; human, in vivo, oral, humans, 150 mg, read-out: observed AUCLST) of 1360 ng·h/mL, a half-life at 14 days ([3]; human, plasma, oral, Day 14, multiple daily doses 10 mg to 150 mg, read-out: t½, geometric mean) of 1.96 to 4.39 h and a Tmax at 14 days ([3]; human, plasma, oral, multiple daily doses, 10 mg to 150 mg) of 1 to 2.5 h. It also gave a Tmax ([3]; human, plasma, single oral dose, 3 mg to 400 mg, read-out: median Tmax) of 1 to 3 h, a half-life ([3]; human, plasma, single oral dose, 3 mg to 400 mg, read-out: terminal elimination half-life (t½), geometric mean) of 1.66 to 6.95 h and a predicted human bioavailability ([3]; prediction before food effect part) of 25%. For the same molecule, the “dose proportionality of Cmax and AUC” value ([3]; single oral dose, 3 mg to 400 mg) was “approximately dose proportional manner”, the “inhibition of intestinal CYP3A4/5” value [4] was “potential for direct and time-dependent inhibition” and the “Paw Swelling Inhibition (%)” value ([5]; 100 mg/kg daily oral gavage) was 65%. For the same molecule, the “dose dependence of inhibition of paw swelling” value ([5]; 20 and 100 mg/kg) was “dose-dependent inhibition of paw swelling”, the “cytokines IL-7, IL-1β; chemokines MCP-1, MIP-1α, KC; GM-CSF” value ([5]; HLA-B27/Huβ2m rats) was “A trend towards decreases” and the “Minimally Efficacious Dose (lowest tested dose determined to be effective)” value ([5]; endpoint paw score) was 20 mg/kg.
